Where “and” joins values, the source holds several entries; their conditions need not be identical. Identical values can stand only once. Counter-ions that a name gives are not always drawn.
Assays:
[1] = Example 2 aqueous humor concentrations; format: in vivo, male New Zealand White rabbits; conditions: for Average Peak Concentration, Aqueous Humor: solution
Description: (§1) To measure the concentration of Compound 1 in plasma and ocular tissues following topical ocular, subcutaneous, and intravitreal administration, New Zealand White rabbits were administered Compound 1, and plasma and ocular samples were collected at pre-determined time points. Compound 1 formulations were prepared fresh on each day of dosing.
(§2) Ocular tissue samples from both eyes of each animal were collected and weights were recorded. Plasma and ocular tissue sample concentrations of Compound 1 were determined by LC-MS/MS.
(§3) Animals were anesthetized for ocular (topical) and intravitreal dosing following the 12IA7 IACUC protocol. Each rabbit received a bolus dose of test formulation either via topical ocular administration 3 times daily on Days 1 and 2 (at 0, 6, and 12 hours), and once on Day 3 (at 0 hours) into both eyes; via intravitreal administration into both eyes once on Day 1 (at 0 hours); or via subcutaneous administration 2 times daily on Days 1 and 2 (at 0 and 8 hours) and once daily on Day 3 (at 0 hours). Doses were given within an approximately 1 hour window each day where applicable.
(§4) On Day 1, for intravitreal administration, or on Day 3, for topical ocular and subcutaneous administration, at the appropriate ocular tissue collection time points, animals were euthanized and both eyes were enucleated immediately. Following enucleation, each eye was rinsed with phosphate-buffered saline. Ocular tissue samples from both eyes of each animal were collected at predetermined time points and weights were recorded. All the samples were frozen immediately on dry ice, and stored at −60° C. to −80° C. pending bioanalysis.
(§5) An LC-MS/MS method was developed for the determination of Compound 1 in rabbit aqueous tissues (plasma, aqueous and vitreous humor) and solid ocular tissue samples. A pre-study standard curve was analyzed to determine the specificity, range, and lower limit of quantitation of the method. Plasma and tissue homogenate study samples were extracted and analyzed. All the samples were treated identically to the standards.
(§6) One eight-point standard curve was used in each analytical batch. To be accepted, each batch must have had at least five of eight standards with accuracy within ±20% of nominal, except at the lower limit of quantification (LLOQ), where ±25% was acceptable.

[2] = Example 2 iris, retina, choroid and cornea tissue concentrations; format: in vivo, male New Zealand White rabbits; conditions: for Average / Conc. (ng/g) OD / Conc. (ng/g) OS / Conc. (ng/mL) OD / Conc. (ng/mL) OS: sodium salt; for Average Peak Concentration, Choroid / Average Peak Concentration, Cornea / Average Peak Concentration, Iris / Average Peak Concentration, Retina: solution
Description: as §1, §2, §3, §4, §5, §6

[3] = Group 1 (topical ocular 1.2 mg/eye), 0.5 hr
[4] = Group 1 (topical ocular 1.2 mg/eye), 1.0 hr
[5] = Group 1 (topical ocular 1.2 mg/eye), 2.0 hr
[6] = Group 1 (topical ocular 1.2 mg/eye), 4.0 hr
[7] = Group 1: topical ocular 0.70 mg/kg/dose
[8] = Group 2 (subcutaneous 5 mg/kg/dose, solution), 0.5 hr
[9] = Group 2 (subcutaneous 5 mg/kg/dose, solution), 1.0 hr
[10] = Group 2 (subcutaneous 5 mg/kg/dose, solution), 2.0 hr
[11] = Group 2 (subcutaneous 5 mg/kg/dose, solution), 4.0 hr, BLOQ = below 0.2 ng/mL
[12] = Group 2: subcutaneous 5 mg/kg/dose
[13] = Group 4 (intravitreal 2.5 mg/eye, solution), 6.0 hr
[14] = Group 4 (intravitreal 2.5 mg/eye, solution), 24 hr
[15] = Group 4 (intravitreal 2.5 mg/eye, solution), 48 hr
[16] = Group 4: intravitreal 1.55 mg/kg/dose
[17] = Choroid, 0.5 hr, subcutaneous 5 mg/kg/dose (Group 2)
[18] = Choroid, 1 hr, subcutaneous 5 mg/kg/dose (Group 2)
[19] = Choroid, 1 hr, topical ocular 1.2 mg/eye (Group 1)
[20] = Choroid, 2 hr, topical ocular 1.2 mg/eye (Group 1)
[21] = Choroid, 4 hr, subcutaneous 5 mg/kg/dose (Group 2)
[22] = Choroid, 4 hr, topical ocular 1.2 mg/eye (Group 1)
[23] = Cornea, 0.5 hr, subcutaneous 5 mg/kg/dose (Group 2)
[24] = Cornea, 0.5 hr, topical ocular 1.2 mg/eye (Group 1)
[25] = Cornea, 1 hr, subcutaneous 5 mg/kg/dose (Group 2)
[26] = Cornea, 1 hr, topical ocular 1.2 mg/eye (Group 1)
[27] = Cornea, 2 hr, subcutaneous 5 mg/kg/dose (Group 2)
[28] = Cornea, 4 hr, subcutaneous 5 mg/kg/dose (Group 2)
[29] = Cornea, 4 hr, topical ocular 1.2 mg/eye (Group 1)
[30] = Iris, 0.5 hr, subcutaneous 5 mg/kg/dose (Group 2)
[31] = Iris, 0.5 hr, topical ocular 1.2 mg/eye (Group 1)
[32] = Iris, 1 hr, subcutaneous 5 mg/kg/dose (Group 2)

COC(=O)N[C@@H](Cc1ccccc1)C(=O)N[C@@H](Cc1ccc(NS(=O)(=O)O)cc1)c1csc(-c2cccs2)n1 [Compound 1 sodium salt]
aqueous humor Average Conc. [1, 3]: 45.8 ng/g
aqueous humor Conc. OS [1, 3]: 1.78 ng/mL
aqueous humor Average Conc. [1, 4]: 15.0 ng/g
aqueous humor Conc. OD [1, 4]: 4.03 ng/mL and 3.05 ng/mL
aqueous humor Conc. OS [1, 4]: 3.55 ng/mL
aqueous humor Average Conc. [1, 5]: 31.6 ng/g
aqueous humor Conc. OD [1, 5]: 2.46 ng/mL
aqueous humor Conc. OS [1, 5]: 14.5 ng/mL and 15.8 ng/mL
aqueous humor Average Conc. [1, 6]: 8.24 ng/g
aqueous humor Conc. OD [1, 6]: 5.48 ng/mL and 7.78 ng/mL
Average Peak Concentration, Aqueous Humor [1, 7]: 45.8 ng/g
aqueous humor Average Conc. [1, 8]: 26.1 ng/g
aqueous humor Conc. OD [1, 8]: 23.5 ng/mL and 18.0 ng/mL
aqueous humor Conc. OS [1, 8]: 24.6 ng/mL and 38.2 ng/mL
aqueous humor Average Conc. [1, 9]: 3.30 ng/g
aqueous humor Conc. OD [1, 9]: 4.51 ng/mL and 3.22 ng/mL
aqueous humor Conc. OS [1, 9]: 1.84 ng/mL and 3.63 ng/mL
aqueous humor Average Conc. [1, 10]: 0.72 ng/g
aqueous humor Conc. OD [1, 10]: 0.581 ng/mL and 0.453 ng/mL
aqueous humor Conc. OS [1, 10]: 0.498 ng/mL
aqueous humor Conc. OD [1, 11]: BLOQ
aqueous humor Conc. OS [1, 11]: BLOQ
Average Peak Concentration, Aqueous Humor [1, 12]: 26.1 ng/g
aqueous humor Average Conc. [1, 13]: 80575 ng/g
aqueous humor Conc. OD [1, 13]: 90600 ng/mL and 75300 ng/mL
aqueous humor Conc. OS [1, 13]: 77100 ng/mL and 79300 ng/mL
aqueous humor Average Conc. [1, 14]: 9000 ng/g
aqueous humor Conc. OD [1, 14]: 4700 ng/mL
aqueous humor Conc. OS [1, 14]: 5190 ng/mL and 6810 ng/mL
aqueous humor Average Conc. [1, 15]: 1963 ng/g
aqueous humor Conc. OD [1, 15]: 2040 ng/mL and 2330 ng/mL
aqueous humor Conc. OS [1, 15]: 1510 ng/mL and 1970 ng/mL
aqueous humor Average Conc. ([1]; Group 4 (intravitreal 2.5 mg/eye, solution), 72 hr): 34.5 ng/g
Average Peak Concentration, Aqueous Humor [1, 16]: 80575 ng/g
aqueous humor concentrations vs free acid (FIG. 8) ([1]; intravitreal administration, up to forty-eight hours post-administration): higher aqueous humor concentrations
aqueous humor concentrations vs free acid (FIG. 7) ([1]; subcutaneous administration, early time points): increased aqueous humor concentrations as compared to the free acid
aqueous humor concentrations (FIG. 6) ([1]; topical ocular administration, over four hours): below 50 ng/g
Average [2, 17]: 266 ng/g
Conc. (ng/g) OD [2, 17]: 264 ng/g and 282 ng/g
Conc. (ng/g) OS [2, 17]: 282 ng/g and 235 ng/g
Conc. (ng/mL) OD [2, 17]: 24.0 ng/mL and 25.6 ng/mL
Conc. (ng/mL) OS [2, 17]: 25.6 ng/mL and 21.4 ng/mL
Average ([2]; Choroid, 0.5 hr, topical ocular 1.2 mg/eye (Group 1)): 57.7 ng/g
Average [2, 18]: 200 ng/g
Conc. (ng/g) OD [2, 18]: 320 ng/g and 211 ng/g
Conc. (ng/g) OS [2, 18]: 144 ng/g and 125 ng/g
Conc. (ng/mL) OD [2, 18]: 29.1 ng/mL and 19.2 ng/mL
Conc. (ng/mL) OS [2, 18]: 13.1 ng/mL and 11.4 ng/mL
Average [2, 19]: 32.2 ng/g
Conc. (ng/g) OD [2, 19]: 61.2 ng/g and 31.8 ng/g
Conc. (ng/g) OS [2, 19]: 16.5 ng/g and 19.5 ng/g
Conc. (ng/mL) OD [2, 19]: 5.56 ng/mL and 2.89 ng/mL
Conc. (ng/mL) OS [2, 19]: 1.50 ng/mL and 1.77 ng/mL
Average ([2]; Choroid, 2 hr, subcutaneous 5 mg/kg/dose (Group 2)): 68.8 ng/g
Average [2, 20]: 59.2 ng/g
Conc. (ng/g) OS [2, 20]: 43.9 ng/g and 64.5 ng/g
Conc. (ng/mL) OS [2, 20]: 3.99 ng/mL and 5.86 ng/mL
Average [2, 21]: 15.5 ng/g
Conc. (ng/g) OD [2, 21]: 18.7 ng/g and 16.5 ng/g
Conc. (ng/g) OS [2, 21]: 13.4 ng/g
Conc. (ng/mL) OD [2, 21]: 1.70 ng/mL and 1.50 ng/mL
Conc. (ng/mL) OS [2, 21]: 1.22 ng/mL
Average [2, 22]: 165 ng/g
Conc. (ng/g) OD [2, 22]: 27.8 ng/g and 52.1 ng/g
Conc. (ng/g) OS [2, 22]: 81.1 ng/g
Conc. (ng/mL) OD [2, 22]: 2.53 ng/mL and 4.74 ng/mL
Average [2, 23]: 19.4 ng/g
Conc. (ng/g) OS [2, 23]: 27.1 ng/g and 21.3 ng/g
Conc. (ng/mL) OS [2, 23]: 2.46 ng/mL and 1.94 ng/mL
Average [2, 24]: 1015 ng/g
Conc. (ng/g) OD [2, 24]: 240 ng/g and 370 ng/g
Conc. (ng/g) OS [2, 24]: 427 ng/g
Conc. (ng/mL) OD [2, 24]: 21.8 ng/mL and 33.6 ng/mL
Average [2, 25]: 31.1 ng/g
Conc. (ng/g) OD [2, 25]: 26.1 ng/g and 23.4 ng/g
Conc. (ng/g) OS [2, 25]: 25.3 ng/g
Conc. (ng/mL) OD [2, 25]: 2.37 ng/mL and 2.13 ng/mL
Conc. (ng/mL) OS [2, 25]: 4.52 ng/mL and 2.30 ng/mL
Average [2, 26]: 548 ng/g
Conc. (ng/g) OS [2, 26]: 482 ng/g and 532 ng/g
Conc. (ng/mL) OS [2, 26]: 43.8 ng/mL and 48.4 ng/mL
Average [2, 27]: 9.45 ng/g
Conc. (ng/g) OD [2, 27]: 11.7 ng/g
Conc. (ng/g) OS [2, 27]: 11.0 ng/g
Average ([2]; Cornea, 2 hr, topical ocular 1.2 mg/eye (Group 1)): 1073 ng/g
Average [2, 28]: 10.1 ng/g
Conc. (ng/g) OD [2, 28]: 8.27 ng/g and 9.60 ng/g
Conc. (ng/g) OS [2, 28]: 8.62 ng/g and 13.9 ng/g
Conc. (ng/mL) OD [2, 28]: 0.752 ng/mL and 0.873 ng/mL
Conc. (ng/mL) OS [2, 28]: 0.784 ng/mL and 1.26 ng/mL
Average [2, 29]: 534 ng/g
Conc. (ng/g) OD [2, 29]: 493 ng/g and 362 ng/g
Conc. (ng/mL) OD [2, 29]: 44.8 ng/mL and 32.9 ng/mL
Average Peak Concentration, Choroid [2, 7]: 57.7 ng/g
Average Peak Concentration, Cornea [2, 7]: 1015 ng/g
Average Peak Concentration, Iris [2, 7]: 24.3 ng/g
Average Peak Concentration, Retina [2, 7]: 25.6 ng/g
Average Peak Concentration, Choroid [2, 12]: 266 ng/g
Average Peak Concentration, Cornea [2, 12]: 19.4 ng/g
Average Peak Concentration, Iris [2, 12]: 459 ng/g
Average Peak Concentration, Retina [2, 12]: 40.5 ng/g
Average Peak Concentration, Choroid [2, 16]: 947375 ng/g
Average Peak Concentration, Cornea [2, 16]: 71445 ng/g
Average Peak Concentration, Iris [2, 16]: 351725 ng/g
Average Peak Concentration, Retina [2, 16]: 774400 ng/g
Average [2, 30]: 459 ng/g
Conc. (ng/g) OD [2, 30]: 305 ng/g and 454 ng/g
Conc. (ng/mL) OD [2, 30]: 27.7 ng/mL and 41.3 ng/mL
Average [2, 31]: 24.3 ng/g
Conc. (ng/g) OD [2, 31]: 28.1 ng/g and 18.7 ng/g
Conc. (ng/g) OS [2, 31]: 17.8 ng/g and 32.5 ng/g
Conc. (ng/mL) OD [2, 31]: 2.55 ng/mL and 1.7 ng/mL
Conc. (ng/mL) OS [2, 31]: 1.62 ng/mL and 2.95 ng/mL
Average [2, 32]: 94.7 ng/g
Conc. (ng/g) OD [2, 32]: 125 ng/g and 99.2 ng/g
Conc. (ng/g) OS [2, 32]: 97.6 ng/g and 56.4 ng/g
Conc. (ng/mL) OD [2, 32]: 11.4 ng/mL and 9.02 ng/mL
Conc. (ng/mL) OS [2, 32]: 8.87 ng/mL and 5.13 ng/mL
Average ([2]; Iris, 1 hr, topical ocular 1.2 mg/eye (Group 1)): 55.2 ng/g

— patent publication US10952992B2, “Methods of treating intraocular pressure with activators of Tie-2” (Aerpio Pharmaceuticals, Inc., priority 2015, dated 2021)
